“Also recorded” adds a separate entry of the source.
Legend:
[1] = in vivo
Method: Measures of thiamine and its esters thiamine diphosphate (ThDP) and thiamine monophosphate (ThMP) provided blood markers of efficacy of drug delivery.
Study procedures. […] At the baseline visit, the cognitive tests were performed and blood drawn for measurement of thiamine, ThDP and ThMP by HPLC and APOE genotyping. Enrolled patients returned to the Burke outpatient clinic at month 3, 6, 9 and 12 for subsequent visits. At month 12, the final FDG/PET scan was performed at CUIMC.
The trial duration per participant was twelve months. […] At each visit, the patients returned the pill bottles for that period. The number of pills returned was used to assess compliance (the percent of pills consumed).

[2] = test system: amyloid positive patients with amnestic mild cognitive impairment (aMCI) or mild dementia due to AD; assay: Safety profile / adverse events in 12-month trial; assay type: in vivo, human
Text: The trial duration per participant was twelve months.
Pre-screening of 634 patients at the METS at the Burke Rehabilitation Hospital excluded all but 120 participants (FIG. 1). Only eighty-three of these patients were amyloid positive. Twelve declined to participate. Seventy-one of these participants agreed to be part of the trial, and were randomized to receive either placebo or benfotiamine. Eight subjects were prematurely discontinued from the trial prior to Month 12. Three participants were withdrawn due to non-compliance <80%; three withdrew consent due to unwillingness to complete study procedures; one participant was lost to follow-up and one was withdrawn by PI due to physical limitations. None of the participants randomized to the treatment group withdrew due to adverse reactions or adverse effects. […] After the trial completion and after the data were locked, one patient in the placebo group was determined to be on benfotiamine from another source and was excluded from the per-protocol analysis.

[3] = test system: brain glucose utilization; assay: FDG PET imaging of glucose metabolism, regions of interest; assay type: in vivo, human
Text: Image acquisition, processing, and measurement. FDG PET imaging of glucose metabolism was acquired at baseline and after 12 months of treatment. All scans were acquired on a Siemens MCT 64 PET/CT PET-CT scanner at CUIMC. Study participants were maintained in an awake, at rest state with eyes and ears open in dim lighting during tracer uptake. Forty minutes after injection of the tracer, the emission image was acquired in four contiguous 5-minute frames. Frames were aligned with SPM 12, averaged, and then spatially normalized to the MNI template using SPM12 (https://www.fil.ion.ucl.ac.uk/spm/software/spm12/), resulting in one image per participant for each time point. Average voxel values within 90 regions of interest (ROIs) in the Automated Anatomic Labeling (AAL) Atlas were computed. […] The paracentral lobule and cerebellum were included as reference regions given their relative preservation during AD progression.

[4] = test system: amyloid positive patients with amnestic mild cognitive impairment (aMCI) or mild dementia due to AD; assay: Clinical dementia rating (CDR) score, 12-month trial; assay type: in vivo, human
Text: ADAS-cog served as the primary endpoint. […] The trial duration per participant was twelve months. […] Clinical dementia rating (CDR) score. CDR is a five-point scale used to characterize six domains of cognitive and functional performance applicable to Alzheimer's disease and related dementias: Memory, Orientation, Judgment & Problem Solving, Community Affairs, Home & Hobbies, and Personal Care. A higher score indicates greater dementia (C. P. Hughes et al., British Journal of Psychiatry, 140, 566-572, 1982). The primary clinical outcome was ADAS-Cog, and secondary outcomes included the CDR score and fluorodeoxyglucose ([…]) imaging of the brain. AGE levels were an exploratory outcome. The primary analysis followed Intention-to-Treat (ITT) and the secondary analysis was per-protocol. The per-protocol analysis omitted one placebo participant who took benfotiamine from a commercial vendor. The ITT and per-protocol analysis are presented for the primary outcome ADAS-cog and the secondary measure CDR. For the other measures, only per-protocol analysis are presented.

[5] = test system: advanced glycation end products (AGE); assay: Advanced glycation end products (AGE) level, ABCAM kit; assay type: in vivo, human; settings: 12 months
Method: Biomarker outcomes. AGE are formed during the Maillard reaction where reducing carbohydrates react with lysine side chains and N-terminal amino groups of various macromolecules, particularly proteins. AGE can adversely affect the function of these macromolecules. One of the most prevalent advanced glycation end products, N-epsilon-(carboxymethyl) lysine, has been implicated in oxidative stress and vascular damage. The quantity of AGE adduct in protein samples is determined by comparison with that of a known AGE-BSA standard curve. AGE levels were measured on plasma sample with a kit from ABCAM (AB238539), Cambridge, Mass., USA

[6] = test system: amyloid positive patients with amnestic mild cognitive impairment (aMCI) or mild dementia due to AD; assay: Neuropsychiatric Inventory (NPI), 12-month trial; assay type: in vivo, human
Method: The trial duration per participant was twelve months. […] Neuropsychiatric Inventory (NPI). The NPI assesses a wide range of behaviors encountered in dementia patients to provide a means of distinguishing frequency and severity of behavioral changes. Ten behavioral and two neuro-vegetative domains are evaluated through an interview with the caregiver.

C/C(=C(\CCOP(=O)(O)O)SC(=O)c1ccccc1)N(C=O)Cc1cnc(C)nc1N [benfotiamine]
increase in blood thiamine above baseline ([1]; human, 12 months): 161 fold
difference in thiamine levels by APOE-epsilon4 carrier status following treatment [1]: three-fold
adverse events related to benfotiamine ([2]; 2×300 mg benfotiamine per day, twelve months): No adverse events
safety of administration in patients with aMCI and dementia due to AD ([2]; overall conclusion): safe
withdrawal due to adverse reactions or adverse effects ([2]; participants randomized to the treatment group): None
Allergy, number of patients (%) ([2]; treatment n = 34, 12 months): 0 (0%)
Anxiety, number of patients (%) ([2]; treatment n = 34, 12 months): 5 (14%)
Bruise, number of patients (%) ([2]; treatment n = 34, 12 months): 2 (6%)
Cold symptoms, number of patients (%) ([2]; treatment n = 34, 12 months): 3 (8%)
Depression, number of patients (%) ([2]; treatment n = 34, 12 months): 1 (3%)
Dizziness, number of patients (%) ([2]; treatment n = 34, 12 months): 3 (8%)
Fall, number of patients (%) ([2]; treatment n = 34, 12 months): 6 (17%)
Gastrointestinal problem, number of patients (%) ([2]; treatment n = 34, 12 months): 9 (26%)
Head injury, number of patients (%) ([2]; treatment n = 34, 12 months): 0 (0%)
Heart arrhythmia, number of patients (%) ([2]; treatment n = 34, 12 months): 1 (3%)
Pain, number of patients (%) ([2]; treatment n = 34, 12 months): 5 (14%)
Pneumonia, number of patients (%) ([2]; treatment n = 34, 12 months): 0 (0%)
Sprain, number of patients (%) ([2]; treatment n = 34, 12 months): 0 (0%)
Stroke, number of patients (%) ([2]; treatment n = 34, 12 months): 2 (6%)
Surgery, number of patients (%) ([2]; treatment n = 34, 12 months): 1 (3%)
Total adverse events ([2]; treatment n = 34, 12 months, placebo 59): 38
FDGPET Month_12 - Baseline change, Entorhinal_cortex Left ([3]; n = 34, 2×300 mg per day): −0.02 (0.11)
FDGPET Month_12 - Baseline change, Entorhinal_cortex Right ([3]; n = 34, 2×300 mg per day): −0.02 (0.10)
FDGPET Month_12 - Baseline change, Frontal cortex Left ([3]; n = 34, 2×300 mg per day): −0.03 (0.04)
FDGPET Month_12 - Baseline change, Frontal cortex Right ([3]; n = 34, 2×300 mg per day): −0.03 (0.04)
FDGPET Month_12 - Baseline change, Hippocampus Left ([3]; n = 34, 2×300 mg per day): −0.01 (0.04)
FDGPET Month_12 - Baseline change, Hippocampus Right ([3]; n = 34, 2×300 mg per day): −0.02 (0.04)
FDGPET Month_12 - Baseline change, Medial temporal Left ([3]; n = 34, 2×300 mg per day): −0.03 (0.04)
FDGPET Month_12 - Baseline change, Medial temporal Right ([3]; n = 34, 2×300 mg per day): −0.03 (0.05)
FDGPET Month_12 - Baseline change, Parietal Left ([3]; n = 34, 2×300 mg per day): −0.02 (0.05)
FDGPET Month_12 - Baseline change, Parietal Right ([3]; n = 34, 2×300 mg per day): −0.02 (0.04)
FDGPET Month_12 - Baseline change, Percuneus Left ([3]; n = 34, 2×300 mg per day): −0.03 (0.04)
FDGPET Month_12 - Baseline change, Percuneus Right ([3]; n = 34, 2×300 mg per day): −0.03 (0.04)
FDGPET Month_12 - Baseline change, Posterior cingulate Left ([3]; n = 34, 2×300 mg per day): −0.02 (0.03)
FDGPET Month_12 - Baseline change, Posterior cingulate Right ([3]; n = 34, 2×300 mg per day): −0.02 (0.03)
FDGPET Month_12 - Baseline change, Prefrontal_cortex Left ([3]; n = 34, 2×300 mg per day): −0.02 (0.04)
FDGPET Month_12 - Baseline change, Prefrontal_cortex Right ([3]; n = 34, 2×300 mg per day): −0.03 (0.04)
FDGPET Month_12 - Baseline change, Whole_brain ([3]; n = 34, 2×300 mg per day): −0.01 (0.02)
FDGPET in pre-specified regions of interest, benfotiamine versus placebo ([3]; paracentral lobule and cerebellum as reference region): No significant differences
Mean change in global CDR from baseline to 12 months ([4]; 2×300 mg per day, placebo 0.22, p=0.034): 0.05
reduction of deterioration (global CDR change versus placebo) ([4]; baseline to 12 months): 77%
CDR response by APOE ε4 status ([4]; non-APOE ε4 group p=0.013): non-APOE ε4 group seemed to respond much more; also recorded: only the non-APOE ε4 allele group differs
mean change in CDR-SB from baseline to 12 months, versus placebo ([4]; p=0.078): difference at trend level
AGE effect by APOE ε4 status [5]: more apparent in non-APOE ε4 patients
effect on AGE over the course of the disease ([5]; 13 benfotiamine patients, p=0.043): inhibited the increase in AGE
change in NPI, whole population ([6]; 12 months versus placebo): No differences
NPI score in males ([6]; males, month 9 (0.014) and month 12 (p=0.035)): significantly reduced scores; also recorded: highly significant benefit in males
